According to patent publication US20220193081A1 (Ellamed IP & Services PTE. LTD., priority 2019, published 2022):

Test: HPLC assay on storage of sildenafil citrate with equal concentration of sucralose in pH adjusted 50% ethanol (Example 2)
Assay type: physicochemical
Conditions: for Impurity B / Impurity D / sildenafil assay: 25° C., Day 285
Procedure: At room temperature, a phosphate buffer was prepared by weighing 3.9 g of NaH2PO4.2H2O into a 500 mL volumetric flask and adding approximately 300 mL of purified water until the phosphate fully dissolved. The pH was then adjusted to 7 with the introduction of NaOH and dilute to the requisite volume by the further addition of purified water.
A 50% ethanol mixture was prepared by introducing either purified water, taken from a MilliQ™ unit or phosphate buffer, to equivalent volumes of Ph.Eur. grade absolute alcohol. The pH of the resultant mixture was then adjusted by using either NaOH 1N solutions and/or Sodium Citrate 1N solutions to reach predetermined pH values.
Samples of sucralose were then dissolved in the pH adjusted 50% ethanol, whilst stirred with a magnetic stirrer and a needle, to a predetermined concentration. […] After preparation, the solutions were each filtered through PDVF 0.22 micro filter of 13 mm in size and placed in polypropylene containers of adequate volume.
Before being placed on storage, and at time points 7 and 42 days, the concentration of sildenafil in the mixture was assayed using HPLC. The samples were then stored at either −20° C., 2-8° C. or 25° C. for periods of up to 42 days. Periodically, the samples were visually inspected for evidence of precipitation or crystallization. […]
The samples of 21 mg/ml at a pH of 5.6 were maintained in stability testing at 25° C. for a total of 285 days.

[1] = 21 mg/ml, pH 5.6, Sodium Citrate

With `CCCc1nn(C)c2c(=O)nc(-c3cc(S(=O)(=O)N4CCN(C)CC4)ccc3OCC)[nH]c12.O=C(O)CC(O)(CC(=O)O)C(=O)O` [sildenafil citrate, 1-[[3-(4,7-Dihydro-1-methyl-7-oxo-3-propyl-1H-pyrazolo[4,3-d]pyrimidin-5-yl)-4-ethoxyphenyl]sulfonyl]-4-methylpiperazine citrate salt] the “concentration of sildenafil by HPLC” value (18 mg/ml, pH 5.2, Sodium Citrate, Day 0) was 18090 µg/mL, the “concentration of sildenafil by HPLC” value (18 mg/ml, pH 5.3, NaOH, 50% ethanol/phosphate buffer, 2-8 ° C., Day 7) was 18050 µg/mL and the “concentration of sildenafil by HPLC” value (18 mg/ml, pH 5.3, NaOH, 50% ethanol/phosphate buffer, 25 ° C., Day 7) was 18070 µg/mL. The “concentration of sildenafil by HPLC” value (18 mg/ml, pH 5.3, NaOH, 50% ethanol/phosphate buffer, Day 0) was 18070 µg/mL, the “concentration of sildenafil by HPLC” value (18 mg/ml, pH 5.6, NaOH, 2-8 ° C., Day 7) was 17860 µg/mL and the “concentration of sildenafil by HPLC” value (18 mg/ml, pH 5.6, NaOH, 2-8 ° C., Day 42) was 18070 µg/mL. The “concentration of sildenafil by HPLC” value (18 mg/ml, pH 5.6, NaOH, 25 ° C., Day 7) was 17860 µg/mL, the “concentration of sildenafil by HPLC” value (18 mg/ml, pH 5.6, NaOH, 25 ° C., Day 42) was 18070 µg/mL and the “concentration of sildenafil by HPLC” value (18 mg/ml, pH 5.6, NaOH, Day 0) was 18130 µg/mL. For the same compound, the “concentration of sildenafil by HPLC” value (18 mg/ml, pH 5.6, Sodium Citrate, 2-8 ° C., Day 7) was 17820 µg/mL, the “concentration of sildenafil by HPLC” value (18 mg/ml, pH 5.6, Sodium Citrate, 2-8 ° C., Day 42) was 17880 µg/mL and the “concentration of sildenafil by HPLC” value (18 mg/ml, pH 5.6, Sodium Citrate, 25 ° C., Day 7) was 17820 µg/mL. The “concentration of sildenafil by HPLC” value (18 mg/ml, pH 5.6, Sodium Citrate, 25 ° C., Day 42) was 17910 µg/mL, the “concentration of sildenafil by HPLC” value (18 mg/ml, pH 5.6, Sodium Citrate, Day 0) was 18190 µg/mL and the “concentration of sildenafil by HPLC” value (18 mg/ml, pH 5.63, NaOH, 50% ethanol/phosphate buffer, 2-8 ° C., Day 7) was 18010 µg/mL. For the same compound, the “concentration of sildenafil by HPLC” value (18 mg/ml, pH 5.63, NaOH, 50% ethanol/phosphate buffer, 25 ° C., Day 7) was 18040 µg/mL, the “concentration of sildenafil by HPLC” value (18 mg/ml, pH 5.63, NaOH, 50% ethanol/phosphate buffer, Day 0) was 18180 µg/mL and the “concentration of sildenafil by HPLC” value (18 mg/ml, pH 6.0, Sodium Citrate, 2-8 ° C., Day 7) was 14950 µg/mL. For the same compound, the “concentration of sildenafil by HPLC” value (18 mg/ml, pH 6.0, Sodium Citrate, 25 ° C., Day 7) was 15080 µg/mL, the “concentration of sildenafil by HPLC” value (18 mg/ml, pH 6.0, Sodium Citrate, Day 0) was 17760 µg/mL and the “concentration of sildenafil by HPLC” value (21 mg/ml, pH 5.29, NaOH, 50% ethanol/phosphate buffer, 2-8 ° C., Day 7) was 20970 µg/mL. The “concentration of sildenafil by HPLC” value (21 mg/ml, pH 5.29, NaOH, 50% ethanol/phosphate buffer, 25 ° C., Day 7) was 20980 µg/mL, the “concentration of sildenafil by HPLC” value (21 mg/ml, pH 5.29, NaOH, 50% ethanol/phosphate buffer, Day 0) was 20940 µg/mL and the “concentration of sildenafil by HPLC” value (21 mg/ml, pH 5.5, NaOH, 2-8 ° C., Day 7) was 20860 µg/mL. The “concentration of sildenafil by HPLC” value (21 mg/ml, pH 5.5, NaOH, 25 ° C., Day 7) was 20970 µg/mL, the “concentration of sildenafil by HPLC” value (21 mg/ml, pH 5.5, NaOH, Day 0) was 21110 µg/mL and the “concentration of sildenafil by HPLC” value (21 mg/ml, pH 5.5, Sodium Citrate, 2-8 ° C., Day 7) was 21140 µg/mL. The “concentration of sildenafil by HPLC” value (21 mg/ml, pH 5.5, Sodium Citrate, 25 ° C., Day 7) was 21220 µg/mL, the “concentration of sildenafil by HPLC” value (21 mg/ml, pH 5.5, Sodium Citrate, Day 0) was 21320 µg/mL and the “concentration of sildenafil by HPLC” value (21 mg/ml, pH 5.6, NaOH, 2-8 ° C., Day 7) was 21040 µg/mL. The “concentration of sildenafil by HPLC” value (21 mg/ml, pH 5.6, NaOH, 2-8 ° C., Day 42) was 21430 µg/mL, the “concentration of sildenafil by HPLC” value (21 mg/ml, pH 5.6, NaOH, 25 ° C., Day 7) was 21020 µg/mL and the “concentration of sildenafil by HPLC” value (21 mg/ml, pH 5.6, NaOH, 25 ° C., Day 42) was 21320 µg/mL. The “Impurity B” value (21 mg/ml, pH 5.6, NaOH) was 0.00, the “Impurity D” value (21 mg/ml, pH 5.6, NaOH) was 0.02 and the “sildenafil assay” value (21 mg/ml, pH 5.6, NaOH) was 21.16. For the same compound, the “concentration of sildenafil by HPLC” value (21 mg/ml, pH 5.6, NaOH, 50% ethanol/phosphate buffer, 2-8 ° C., Day 7) was 20930 µg/mL, the “concentration of sildenafil by HPLC” value (21 mg/ml, pH 5.6, NaOH, 50% ethanol/phosphate buffer, 25 ° C., Day 7) was 20990 µg/mL and the “concentration of sildenafil by HPLC” value (21 mg/ml, pH 5.6, NaOH, 50% ethanol/phosphate buffer, Day 0) was 20970 µg/mL. For the same compound, the “concentration of sildenafil by HPLC” value (21 mg/ml, pH 5.6, NaOH, Day 0) was 21200 µg/mL, the “concentration of sildenafil by HPLC” value (21 mg/ml, pH 5.6, Sodium Citrate, 2-8 ° C., Day 7) was 20990 µg/mL and the “concentration of sildenafil by HPLC” value (21 mg/ml, pH 5.6, Sodium Citrate, 2-8 ° C., Day 42) was 21410 µg/mL. For the same compound, the “concentration of sildenafil by HPLC” value (21 mg/ml, pH 5.6, Sodium Citrate, 25 ° C., Day 7) was 21060 µg/mL, the “concentration of sildenafil by HPLC” value (21 mg/ml, pH 5.6, Sodium Citrate, 25 ° C., Day 42) was 21270 µg/mL and the “Impurity B” value [1] was 0.01. For the same compound, the “Impurity D” value [1] was 0.02, the “sildenafil assay” value [1] was 21.14 and the “concentration of sildenafil by HPLC” value (21 mg/ml, pH 5.6, Sodium Citrate, Day 0) was 21260 µg/mL. For the same compound, the “concentration of sildenafil by HPLC” value (21 mg/ml, pH 5.8, NaOH, 2-8 ° C., Day 7) was 20950 µg/mL, the “concentration of sildenafil by HPLC” value (21 mg/ml, pH 5.8, NaOH, 25 ° C., Day 7) was 21730 µg/mL and the “concentration of sildenafil by HPLC” value (21 mg/ml, pH 5.8, NaOH, Day 0) was 21150 µg/mL. The “concentration of sildenafil by HPLC” value (21 mg/ml, pH 5.8, Sodium Citrate, 2-8 ° C., Day 7) was 20960 µg/mL, the “concentration of sildenafil by HPLC” value (21 mg/ml, pH 5.8, Sodium Citrate, 25 ° C., Day 7) was 21070 µg/mL and the “concentration of sildenafil by HPLC” value (21 mg/ml, pH 5.8, Sodium Citrate, Day 0) was 21080 µg/mL. The “concentration of sildenafil by HPLC” value (21 mg/ml, pH 6.01, NaOH, 50% ethanol/phosphate buffer, 2-8 ° C., Day 7) was 16220 µg/mL, the “concentration of sildenafil by HPLC” value (21 mg/ml, pH 6.01, NaOH, 50% ethanol/phosphate buffer, 25 ° C., Day 7) was 18020 µg/mL and the “concentration of sildenafil by HPLC” value (21 mg/ml, pH 6.01, NaOH, 50% ethanol/phosphate buffer, Day 0) was 20770 µg/mL. For the same compound, the breakdown products (any of the conditions tested, up to 42 days) was “No breakdown products were identified”.
